From patent US12441988B2, “Engineered adult-like human heart tissue” (THE TRUSTEES OF COLUMBIA UNIVERSITY IN THE CITY OF NEW YORK, priority 2015, dated 2025) come the findings set out here.

Entries after “also recorded” stand apart in the source; their conditions may differ.

Holding throughout (format): cell-based, human
The test system of data set [1] is TS organoids. The data set can be described thus: Timothy Syndrome disease model, force generation in response to extracellular calcium. Particulars: Ca2+ overload with decreased force.
Data set [2] concerns TS organoids. The data set can be described thus: Timothy Syndrome disease model, calcium transients and EADs. As for the experimental part:
Timothy Syndrome hiPSCs were generated and differentiated into CMs as previously described. Briefly, fibroblasts were isolated from patients with Timothy Syndrome (TS line) and a control healthy fibroblast line (#3, IMR90 cell line) and transduced by lipofection using established episomal vectors. […] 2 μM IWP-3 (Wnt inhibitor, #SML0533, Lot #102m4613V, Sigma-Aldrich) was added for days 5-11, in DF20 for days 5-7 and DF5 for day 7 onwards.
(§1) Tissues (organoids and FCTs) within culture platforms were loaded with Fluo-4 NW (50% v/v, Life Technologies) in RPMI+B27 media containing 5 μM blebbistatin (Sigma) to reduce movement artifacts, for 30 minutes at 37° C. Videos were acquired at a rate of 150 frames per second using a Pike F-032 camera (Allied Vision Technologies) controlled by the custom designed, free-source SPLASSH software. Videos were analyzed in MATLAB using a custom script that calculated the temporal changes in calcium fluorescence intensity. Specifically, each frame was normalized to a baseline background region to give baseline-corrected changes in minimum and maximum fluorescence values for each frame. This temporal change in fluorescence intensity was presented as a calcium transient trace from which measurements were obtained.
(§2) Calcium transients were analyzed to measure the irregularity of various parameters as previously described. Briefly, the calcium transient “timing” was determined as the peak-to peak value of two successive beats as defined by the peak maxima. Calcium transient “amplitude” was determined by numerically integrating the area below the peak maxima relative to the baseline. […] The average rhythmicity was defined as the ratio of the parameter standard deviation to the parameter mean of the corresponding (control, constant, intensity) tissue group. Beats with parameter measurements falling outside two standard deviations from the average rhythmicity were classified as irregular.

Data set [3] has as its system hiPS-CM organoids. Kind of data set: Calcium handling (Fluo-4 calcium transients) in organoids and FCTs. The settings on record: for calcium transients after drug: organoids and FCTs, verapamil or 0.002 mM thapsigargin. As for the experimental part: Calcium transients were analyzed using the Fluo-4 NW dye in RPMI+B27 media containing 5 μM blebbistatin to reduce movement artifacts, for 30 minutes at 37° C. Videos were acquired at a rate of 150 frames per second using a Pike F-032 camera controlled by the custom-designed, free-source SPLASSH software. Videos were analyzed in MATLAB using a custom script that calculated the temporal changes in calcium fluorescence intensity. Each frame was normalized to a baseline background region to give baseline corrected changes in minimum and maximum fluorescence values for each frame. This temporal change in fluorescence intensity was presented as a calcium transient trace. The calcium transient timing was determined as the peak-to-peak value of two successive beats as defined by the peak maxima. Calcium transient amplitude was determined by numerically integrating the area below the peak maxima relative to the baseline. […] The average rhythmicity was defined as the ratio of the parameter standard deviation to the parameter mean of the corresponding (control, constant, intensity) tissue group. Beats with parameter measurements falling outside two standard deviations from the average rhythmicity were classified as irregular.
as §1, §2

Data set [4] has as its system hiPS-CM organoids. Kind of data set: Dose response curves of drugs in engineered cardiac tissue (beat frequency, force, EC50). Particulars: for beat frequency (BPM): engineered cardiac micro-tissue, increasing drug concentrations. As for the experimental part:
Tissue contractility was measured by tracking the change in the projected tissue area as a function of time. Live cell, bright field videos were acquired at rates of 150 frames per second using a Pike F-032b (Allied Vision Technologies) camera controlled with the custom […] software. Acquired video frames were inverted and an automated intensity threshold was used to identify cell location in the video frame. First, a baseline time point in the video corresponding to a relaxed tissue state was selected. Absolute differences in cell area from the baseline frame were then calculated to create a time course of cell area dynamics as a function of time. The resulting time courses were analyzed with a native MATLAB automated peak finding algorithm to determine locations of maximum cell contraction indicated by the locations of local maxima in the time courses. Beat period lengths were determined from the length of time between pairs of local maxima. Beat frequencies were determined by inverting beat periods. Contraction amplitude relaxation times were measured from the length of time required for the time course to relax in amplitude from the peak contraction amplitude of the local maxima to the calculated relaxation amplitude (e.g. the […] time was the length of time elapsed from the local maxima until the contraction time course reached 10% of the local maximum contraction difference amplitude). Drugs were diluted in standard media (RPMI+B27). […] Tissue videos were captured≥5 minutes after each dose was administered, and processed using custom image processing software as discussed above. For chronotropic drugs, bright field videos were taken at each drug concentration so that measurements of the beat frequency could be determined as a function of drug concentration. For ionotropic drugs, tissues were placed in the organ bath and force measurements were recorded as previously described at each drug concentration so that the measurements of the change in force generated could be determined as a function of drug concentration. Dose-response curves for these parameters could be constructed by using Matlab to fit the Hill Equation for sigmoid curves to the data, to determine the corresponding EC50 value.

For data set [5], the system named is hiPS-CM organoids. The data set can be described thus: Force measurements (twitch tension, organ bath). The settings on record: intensity-trained organoids versus other organoids and FCTs.

Take `CC(C)NCC(O)COc1cccc2ccccc12` (stereo not drawn) [propranolol]: the “force generation in response to extracellular calcium” value in the data set with TS organoids [1] is reported as “reversed some of these effects”.
Regarding `COc1ccc(CCN(C)CCCC(C#N)(c2ccc(OC)c(OC)c2)C(C)C)cc1OC` (stereo not drawn) [verapamil], the “rescue of the TS phenotype” value in the data set on TS organoids [2] (therapeutic concentrations) is “rescued the phenotype”. The “calcium transients after drug” value in the data set with hiPS-CM organoids [3] is “cessation of calcium transients in all tissues; also recorded: cessation of Ca2+ transients”.
For the compound `C/C=C(/C)C(=O)O[C@H]1C(C)=C2[C@H]([C@@H]1OC(=O)CCCCCCC)[C@@](C)(OC(C)=O)C[C@H](OC(=O)CCC)[C@@]1(O)[C@H]2OC(=O)[C@@]1(C)O` [thapsigargin], the “calcium transients after drug” value in the data set with hiPS-CM organoids [3] is “calcium transients ceased quickly in intensity-trained organoids”.
On to `COc1cc(N)c(Cl)cc1C(=O)NC1CCN(CCCOc2ccc(F)cc2)CC1OC` (stereo not drawn) [cisapride], for which the “incidence of EADs” value with TS organoids [2] is “increased incidence of EADs”. Besides, in the data set on hiPS-CM organoids [4], the “beat frequency (BPM)” value was “opposite effect”. In addition, in the data set with hiPS-CM organoids [3] (female cardiac organoids, 1 μM), the “proarrhythmic Early After Depolarizations” value is “increased proarrythmic Early After Depolarizations”. In addition, the “intracellular calcium transients, early after-depolarizations (EADs)” value in the data set with hiPS-CM organoids [3] (intensity-trained organoids, increasing concentrations) is “prolonged”. The proarrhythmic tendencies entry in the data set on hiPS-CM organoids [3] (other (not intensity-trained) organoids and FCTs) is listed as “did not recapitulate proarrythmic tendencies”.
As for `Cn1c(=O)c2c(ncn2C)n(C)c1=O` [caffeine], the “release of Ca2+ by caffeine after nifedipine” value in the data set with TS organoids [2] is recorded as “released Ca2+ back into the cytosol”.
Regarding `CNC[C@H](O)c1ccc(O)c(O)c1` [epinephrine], the “incidence of EADs” value in the data set with TS organoids [2] is “increased incidence of EADs”.
For the compound `O=C1c2c(O)ccc(O)c2C(=O)c2c(NCCNCCO)ccc(NCCNCCO)c21` [mitoxantrone], the “beat frequency (BPM)” value in the data set with hiPS-CM organoids [4] was “opposite effect”.
Turning to `CC(C)NCC(O)c1ccc(O)c(O)c1` (stereo not drawn) [isoproterenol], in the data set on TS organoids [2], the “calcium transients, QT intervals, EADs under β-adrenergic stimulation” value is “increased calcium transients, prolonged QT intervals, and led to proarrhythmic EADs”. The twitch tension entry was “responded by increasing twitch tension” with hiPS-CM organoids [5] and “significantly increased their twitch tension” in the data set with hiPS-CM organoids [5] (listed as Isoprenaline). Also, the “beat frequency (BPM)” value in the data set with hiPS-CM organoids [4] is “increases with increasing concentrations”. Moreover, the “ionotropic, lusitropic and chronotropic responses” value in the data set with hiPS-CM organoids [4] (intensity-trained organoids) was “positive ionotropic (FIG. 23A), lusitropic (FIG. 23B), and chronotropic (FIG. 23C) responses; also recorded: dose-dependent effect on three functional properties”.
Take ryanodine: the response to ryanodine entry with hiPS-CM organoids [3] (1 μmol/L, early-stage versus late-stage intensity trained organoids) was “intensity trained early-stage but not late-stage organoids respond”.
